Measurements from patent publication US11401270B2, “Alcoxyamino derivatives for treating pain and pain related conditions” (ESTEVE PHARMACEUTICALS, S.A., priority 2017, dated 2022).
Where two headings read alike, the source gives them in different places.

Key:
[1] = biological target: Human norepinephrine transporter (NET) (Homo sapiens (Human), UniProt P23975); test: Binding Assay to Human Norepinephrine Transporter (NET); settings: Table 2, dual compounds; human NET enriched membranes, 5 nM [3H]-Nisoxetin; read-out: Ki(nM) NET Hum
Chain of Human norepinephrine transporter (NET) (P23975 whole entry): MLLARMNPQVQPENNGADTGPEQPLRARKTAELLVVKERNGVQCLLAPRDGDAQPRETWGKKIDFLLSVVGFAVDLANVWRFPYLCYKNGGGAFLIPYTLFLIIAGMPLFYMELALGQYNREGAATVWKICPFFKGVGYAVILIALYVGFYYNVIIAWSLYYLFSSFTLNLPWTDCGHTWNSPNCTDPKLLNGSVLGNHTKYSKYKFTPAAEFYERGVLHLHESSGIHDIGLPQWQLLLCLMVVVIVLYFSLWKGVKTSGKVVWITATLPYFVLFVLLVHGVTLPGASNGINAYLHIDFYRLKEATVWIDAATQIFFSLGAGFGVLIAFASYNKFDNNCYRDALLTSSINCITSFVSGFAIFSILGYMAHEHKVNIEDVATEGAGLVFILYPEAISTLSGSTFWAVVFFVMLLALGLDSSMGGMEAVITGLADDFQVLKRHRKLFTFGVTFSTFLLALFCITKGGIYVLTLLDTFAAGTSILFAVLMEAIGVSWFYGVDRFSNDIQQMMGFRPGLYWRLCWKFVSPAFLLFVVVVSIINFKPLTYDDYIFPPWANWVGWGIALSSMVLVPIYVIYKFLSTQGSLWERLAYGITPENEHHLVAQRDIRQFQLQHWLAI
Description: Binding Assay to Human Norepinephrine Transporter (NET).
Human norepinephrine transporter (NET) enriched membranes (5 μg) were incubated with 5 nM of radiolabeled [3H]-Nisoxetin in assay buffer containing 50 mM Tris-HCl, 120 mM NaCl, 5 mM KCl, pH 7.4.
NSB (non specific binding) was measured by adding 10 μM desipramine. The binding of the test compound was measured in five different concentrations. After 60 min incubation at 4° C., binding reaction was terminated by filtering through Multiscreen GF/C (Millipore) presoaked in 0.5% polyethyleneimine in Vacuum Manifold Station, followed by 3 washes with ice-cold filtration buffer containing 50 mM Tris-HCl, 0.9% NaCl, pH 7.4.
Filter plates were dried at 60° C. for 1 hour and 30 μl of scintillation cocktail were added to each well before radioactivity reading.

[2] = biological target: Human α2δ-1 subunit of Cav2.2 calcium channel (Homo sapiens (Human), UniProt P54289); test: Binding Assay to Human α2δ-1 Subunit of Cav2.2 Calcium Channel; settings: human α2δ-1 enriched membranes, 15 nM [3H]-Gabapentin, read-out: Ki(nM) alpha2delta Hum
Chain of Human α2δ-1 subunit of Cav2.2 calcium channel (P54289 25-1103): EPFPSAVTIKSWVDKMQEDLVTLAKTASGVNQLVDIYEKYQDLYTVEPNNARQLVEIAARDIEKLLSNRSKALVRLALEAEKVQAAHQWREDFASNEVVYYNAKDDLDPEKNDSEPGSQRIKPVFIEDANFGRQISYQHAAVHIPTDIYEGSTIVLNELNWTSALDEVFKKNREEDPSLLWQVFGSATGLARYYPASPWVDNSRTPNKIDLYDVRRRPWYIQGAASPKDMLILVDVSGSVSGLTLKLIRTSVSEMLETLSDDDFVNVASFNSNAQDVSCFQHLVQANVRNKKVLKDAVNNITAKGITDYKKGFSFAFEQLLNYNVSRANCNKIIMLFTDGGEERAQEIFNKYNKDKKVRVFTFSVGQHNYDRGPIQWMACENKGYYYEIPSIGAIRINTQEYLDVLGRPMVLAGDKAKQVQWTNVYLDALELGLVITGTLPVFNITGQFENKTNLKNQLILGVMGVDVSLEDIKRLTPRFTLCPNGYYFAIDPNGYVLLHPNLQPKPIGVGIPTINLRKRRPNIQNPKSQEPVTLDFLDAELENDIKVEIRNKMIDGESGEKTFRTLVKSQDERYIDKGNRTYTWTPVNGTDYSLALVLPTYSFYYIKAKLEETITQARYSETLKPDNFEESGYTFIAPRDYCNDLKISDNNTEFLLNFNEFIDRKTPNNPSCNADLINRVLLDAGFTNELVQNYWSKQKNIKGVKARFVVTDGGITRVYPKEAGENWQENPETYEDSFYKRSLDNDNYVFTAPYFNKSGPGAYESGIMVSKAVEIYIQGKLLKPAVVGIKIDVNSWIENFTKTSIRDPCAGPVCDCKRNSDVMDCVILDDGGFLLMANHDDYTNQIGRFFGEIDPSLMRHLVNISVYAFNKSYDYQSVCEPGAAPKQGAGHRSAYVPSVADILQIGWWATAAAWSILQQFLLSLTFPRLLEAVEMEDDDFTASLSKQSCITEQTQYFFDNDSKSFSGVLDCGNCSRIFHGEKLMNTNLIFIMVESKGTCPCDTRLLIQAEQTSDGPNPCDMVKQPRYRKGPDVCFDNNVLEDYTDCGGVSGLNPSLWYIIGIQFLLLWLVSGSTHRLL
Summary of the method: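 Radioligand filtration binding at the α2δ-1 subunit, test compound at five concentrations; nonspecific binding defined with 10 μM pregabalin. Incubated 60 min at 27 °C, stopped by GF/C filtration (0.5% PEI presoaked) with ice-cold 50 mM Tris-HCl pH 7.4 washes; bound radioactivity counted by scintillation.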

Compound `CNCCC(Oc1ccc(CN2CCN(C)c3ncccc3C2=O)c(F)c1)c1ccccc1F` (stereo not drawn) [Example 129, 4-(2-Fluoro-4-(1-(2-fluorophenyl)-3-(methylamino)propoxy)benzyl)-1-methyl-1,2,3,4-tetrahydro-5H-pyrido[2,3-e][1,4]diazepin-5-one] has a Ki [1] of less than 100 nM, a Ki ([2]; Table 1) of 100 to 500 nM and a Ki ([2]; Table 2, dual compounds) of 100 to 500 nM.
Compound `CCNc1ccc2c(n1)N(C)CCN(Cc1ccc(OC(CCNC)c3ccccc3)cc1)C2=O` (stereo not drawn) [Example 111, 8-(Ethylamino)-1-methyl-4-(4-(3-(methylamino)-1-phenylpropoxy)benzyl)-1,2,3,4-tetrahydro-5H-pyrido[2,3-e][1,4]diazepin-5-one] has a Ki [1] of less than 100 nM, a Ki ([2]; Table 1) of 500 to 3000 nM and a Ki ([2]; Table 2, dual compounds) of 500 to 3000 nM.
In the case of `CNCC[C@H](Oc1ccc(CN2CCN(C)c3cccnc3C2=O)cc1)c1cccs1` [Example 97, (S)-1-methyl-4-(4-(3-(methylamino)-1-(thiophen-2-yl)propoxy)benzyl)-1,2,3,4-tetrahydro-5H-pyrido[3,2-e][1,4]diazepin-6-one], the Ki [1] is reported as 100 to 500 nM, the Ki ([2]; Table 1) is reported as 500 to 3000 nM and the Ki ([2]; Table 2, dual compounds) is reported as 500 to 3000 nM.
With `CNCC[C@H](Oc1cccc(N2CCN(C(C)C)CCC2=O)c1)c1ccsc1` [Example 77, (S)-1-isopropyl-4-(3-(3-(methylamino)-1-(thiophen-3-yl)propoxy)phenyl)-1,4-diazepan-5-one] the Ki [1] was 100 to 500 nM, the Ki ([2]; Table 1) was 100 to 500 nM and the Ki ([2]; Table 2, dual compounds) was 100 to 500 nM.
Compound `CNCCC(OCc1cccc(N2CCN(C)CCC2=O)c1)c1ccccc1` (stereo not drawn) [Example 34, 1-Methyl-4-(3-((3-(methylamino)-1-phenylpropoxy)methyl)phenyl)-1,4-diazepan-5-one] has a Ki [1] of 100 to 500 nM, a Ki ([2]; Table 1) of 500 to 3000 nM and a Ki ([2]; Table 2, dual compounds) of 500 to 3000 nM.
With `CNCCC(Oc1ccc(CN2CCN(C)c3nc(C)ccc3C2=O)cc1)c1cccs1` (stereo not drawn) [Example 100, 1,8-Dimethyl-4-(4-(3-(methylamino)-1-(thiophen-2-yl)propoxy)benzyl)~ 1,2,3,4-tetrahydro-5H-pyrido[2,3-e][1,4]diazepin-5-one] the Ki [1] was 500 to 1000 nM, the Ki ([2]; Table 1) was 100 to 500 nM and the Ki ([2]; Table 2, dual compounds) was 100 to 500 nM.
In the case of `CNCC[C@H](Oc1ccc(CN2CCN(C)c3ccccc3C2=O)cc1)c1cccs1` [Example 98, (S)-1-methyl-4-(4-(3-(methylamino)-1-(thiophen-2-yl)propoxy)benzyl)-1,2,3,4-tetrahydro-5H-benzo[e][1,4]diazepin-5-one], the Ki [1] is reported as 100 to 500 nM, the Ki ([2]; Table 1) is reported as 500 to 3000 nM and the Ki ([2]; Table 2, dual compounds) is reported as 500 to 3000 nM.
In the case of `CNCCC(Oc1cccc(N2CCN(C(C)C)CCC2=O)c1)c1ccsc1` (stereo not drawn) [Example 75, 1-Isopropyl-4-(3-(3-(methylamino)-1-(thiophen-3-yl)propoxy)phenyl)-1,4-diazepan-5-one], the Ki [1] is reported as 100 to 500 nM, the Ki ([2]; Table 1) is reported as 100 to 500 nM and the Ki ([2]; Table 2, dual compounds) is reported as 100 to 500 nM.
For `CNCCC(Oc1ccc(CN2CCN(C)c3nc(C)ccc3C2=O)cc1)c1ccccc1` (stereo not drawn) [Example 110, 1,8-Dimethyl-4-(4-(3-(methylamino)-1-phenylpropoxy)benzyl)-1,2,3,4-tetrahydro-5H-pyrido[2,3-e][1,4]diazepin-5-one], the Ki [1] was less than 100 nM, the Ki ([2]; Table 1) was 500 to 3000 nM and the Ki ([2]; Table 2, dual compounds) was 500 to 3000 nM.
In the case of `CNCC[C@H](Oc1ccc(CN2CCCn3nc(C)cc3C2=O)c(F)c1)c1ccccc1` [Example 139, (S)-5-(2-fluoro-4-(3-(methylamino)-1-phenylpropoxy)benzyl)-2-methyl-5,6,7,8-tetrahydro-4H-pyrazolo[1,5-a][1,4]diazepin-4-one], the Ki [1] is reported as less than 100 nM, the Ki ([2]; Table 1) is reported as 100 to 500 nM and the Ki ([2]; Table 2, dual compounds) is reported as 100 to 500 nM.
With `CNCC[C@H](Oc1cc(F)cc(N2CCN(C)c3ncccc3C2=O)c1)c1cccs1` [Example 120, (S)-4-(3-fluoro-5-(3-(methylamino)-1-(thiophen-2-yl)propoxy)phenyl)-1-methyl-1,2,3,4-tetrahydro-5H-pyrido[2,3-e][1,4]diazepin-5-one] the Ki [1] was less than 100 nM, the Ki ([2]; Table 1) was less than 100 nM and the Ki ([2]; Table 2, dual compounds) was less than 100 nM.
With `CNCC[C@H](Oc1ccc(CN2CCN(C)c3ncccc3C2=O)c(F)c1)c1ccccc1F` [Example 152, (S)-4-(2-fluoro-4-(1-(2-fluorophenyl)-3-(methylamino)propoxy)benzyl)-1-methyl-1,2,3,4-tetrahydro-5H-pyrido[2,3-e][1,4]diazepin-5-one] the Ki [1] was less than 100 nM, the Ki ([2]; Table 1) was less than 100 nM and the Ki ([2]; Table 2, dual compounds) was less than 100 nM.
For `CNCC[C@H](Oc1ccc(CN2CCN(C)c3ncccc3C2=O)c(Cl)c1)c1cccs1` [Example 126, (S)-4-(2-chloro-4-(3-(methylamino)-1-(thiophen-2-yl)propoxy)benzyl)-1-methyl-1,2,3,4-tetrahydro-5H-pyrido[2,3-e][1,4]diazepin-5-one], the Ki [1] was less than 100 nM, the Ki ([2]; Table 1) was less than 100 nM and the Ki ([2]; Table 2, dual compounds) was less than 100 nM.
`CCNC[C@H]1CC(=O)N(c2cccc(O[C@@H](CCNC)c3cccs3)c2)CCN1C` [Example 86, (R)-7-((ethylamino)methyl)-1-methyl-4-(3-((S)-3-(methylamino)-1-(thiophen-2-yl)propoxy)phenyl)-1,4-diazepan-5-one] was tested, and the Ki [1] was 100 to 500 nM, the Ki ([2]; Table 1) was 500 to 3000 nM and the Ki ([2]; Table 2, dual compounds) was 500 to 3000 nM.
Work on `CNCC[C@H](Oc1ccc(CN2CCN(C)c3ncccc3C2=O)cc1)c1cccs1` [Example 90, (S)-1-methyl-4-(4-(3-(methylamino)-1-(thiophen-2-yl)propoxy)benzyl)-1,2,3,4-tetrahydro-5H-pyrido[2,3-e][1,4]diazepin-5-one] yielded a Ki [1] of 100 to 500 nM, a Ki ([2]; Table 1) of less than 100 nM and a Ki ([2]; Table 2, dual compounds) of less than 100 nM.
`CNCC[C@H](Oc1cccc(N2CCN(C)c3nc(N)ccc3C2=O)c1)c1cccs1` [Example 83, (S)-8-amino-1-methyl-4-(3-(3-(methylamino)-1-(thiophen-2-yl)propoxy)phenyl)-1,2,3,4-tetrahydro-5H-pyrido[2,3-e][1,4]diazepin-5-one] showed a Ki [1] of 100 to 500 nM, a Ki ([2]; Table 1) of 100 to 500 nM and a Ki ([2]; Table 2, dual compounds) of 100 to 500 nM.
`CNCCC(OCc1cccc(N2CCCN(C)CC2)c1)c1ccccc1` (stereo not drawn) [Example 6, N-methyl-3-((3-(4-methyl-1,4-diazepan-1-yl)benzyl)oxy)-3-phenylpropan-1-amine] showed a Ki [1] of 100 to 500 nM, a Ki ([2]; Table 1) of 500 to 3000 nM and a Ki ([2]; Table 2, dual compounds) of 500 to 3000 nM.
Compound `CNCCC(Oc1cccc(N2CCN(C)c3nc(C)ccc3C2=O)c1)c1ccsc1` (stereo not drawn) [Example 78, 1,8-Dimethyl-4-(3-(3-(methylamino)-1-(thiophen-3-yl)propoxy)phenyl)-1,2.3,4-tetrahydro-5H-pyrido[2,3-e][1,4]diazepin-5-one] has a Ki [1] of 100 to 500 nM, a Ki ([2]; Table 1) of 100 to 500 nM and a Ki ([2]; Table 2, dual compounds) of 100 to 500 nM.
Compound `CNCC[C@H](Oc1ccc(CN2CCN(C)c3nc(OC)ccc3C2=O)cc1)c1cccs1` [Example 94, (S)-8-methoxy-1-methyl-4-(4-(3-(methylamino)-1-(thiophen-2-yl)propoxy)benzyl)-1,2,3,4-tetrahydro-5H-pyrido[2,3-e][1,4]diazepin-5-one] has a Ki [1] of 100 to 500 nM, a Ki ([2]; Table 1) of 100 to 500 nM and a Ki ([2]; Table 2, dual compounds) of 100 to 500 nM.
For `CNCC[C@H](Oc1ccc(CN2CCN(C)c3cnccc3C2=O)cc1)c1cccs1` [Example 96, (S)-1-methyl-4-(4-(3-(methylamino)-1-(thiophen-2-yl)propoxy)benzyl)-1,2,3,4-tetrahydro-5H-pyrido[3,4-e][1,4]diazepin-5-one], the Ki [1] was 100 to 500 nM, the Ki ([2]; Table 1) was 100 to 500 nM and the Ki ([2]; Table 2, dual compounds) was 100 to 500 nM.
`CNCCC(Oc1cccc(C(=O)N2CCCN(C)CC2)c1)c1ccccc1` (stereo not drawn) [Example 3, (4-Methyl-1,4-diazepan-1-yl)(3-(3-(methylamino)-1-phenylpropoxy)phenyl)methanone] was tested, and the Ki [1] was 100 to 500 nM, the Ki ([2]; Table 1) was 500 to 3000 nM and the Ki ([2]; Table 2, dual compounds) was 500 to 3000 nM.
`CNCC[C@H](Oc1cccc(N2CCN(C)c3nc(C)ccc3C2=O)c1)c1ccsc1` [Example 80, (S)-1,8-dimethyl-4-(3-(3-(methylamino)-1-(thiophen-3-yl)propoxy)phenyl)-1,2,3,4-tetrahydro-5H-pyrido[2,3-e][1,4]diazepin-5-one] showed a Ki [1] of less than 100 nM, a Ki ([2]; Table 1) of 100 to 500 nM and a Ki ([2]; Table 2, dual compounds) of 100 to 500 nM.
`CNCC[C@H](Oc1ccc(CN2CCN(C)c3nc(C(F)(F)F)ccc3C2=O)cc1)c1cccs1` [Example 93, (S)-1-methyl-4-(4-(3-(methylamino)-1-(thiophen-2-yl)propoxy)benzyl)-8-(trifluoromethyl)-1,2,3,4-tetrahydro-5H-pyrido[2,3-e][1,4]diazepin-5-one] showed a Ki [1] of 100 to 500 nM, a Ki ([2]; Table 1) of 100 to 500 nM and a Ki ([2]; Table 2, dual compounds) of 100 to 500 nM.
`CCNc1ccc2c(n1)N(C)CCN(Cc1ccc(O[C@@H](CCNC)c3cccs3)cc1)C2=O` [Example 92, (S)-8-(ethylamino)-1-methyl-4-(4-(3-(methylamino)-1-(thiophen-2-yl)propoxy)benzyl)-1,2,3,4-tetrahydro-5H-pyrido[2,3-e][1,4]diazepin-5-one] showed a Ki [1] of less than 100 nM, a Ki ([2]; Table 1) of 100 to 500 nM and a Ki ([2]; Table 2, dual compounds) of 100 to 500 nM.
`CNCCC(Oc1cccc(N2CCN(C)c3nc(N(C)C)ccc3C2=O)c1)c1cccs1` (stereo not drawn) [Example 70, 8-(Dimethylamino)-1-methyl-4-(3-(3-(methylamino)-1-(thiophen-2-yl)propoxy)phenyl)-1,2,3,4-tetrahydro-5H-pyrido[2,3-e][1,4]diazepin-5-one] showed a Ki [1] of 100 to 500 nM, a Ki ([2]; Table 1) of 500 to 3000 nM and a Ki ([2]; Table 2, dual compounds) of 500 to 3000 nM.
Work on `CNCC[C@H](Oc1ccc(CN2CCCn3nccc3C2=O)c(F)c1)c1ccccc1` [Example 145, (S)-5-(2-fluoro-4-(3-(methylamino)-1-phenylpropoxy)benzyl)-5,6,7,8-tetrahydro-4H-pyrazolo[1,5-a][1,4]diazepin-4-one] yielded a Ki [1] of less than 100 nM, a Ki ([2]; Table 1) of 500 to 3000 nM and a Ki ([2]; Table 2, dual compounds) of 500 to 3000 nM.
